Measured values taken from US11964980B2, “Crystalline forms of (S)-1-(4-fluorophenyl)-1-(2-(4-(6-(1-methyl-1H-pyrazol-4-yl)pyrrolo[2,1- f][1,2,4]triazin-4-yl)piperazinyl)-pyrimidin-5-yl)ethan-1-amine and methods of making” (Blueprint Medicines Corporation, priority 2019, dated 2024).
“Also recorded” adds a separate entry of the source.

How the values were obtained:
PDGFRA D842V-mutant GIST = test: Phase 1 dose escalation and expansion study in advanced GIST: efficacy (mRECIST 1.1, central radiology); type: in vivo, human; conditions: for OS (estimated): median follow up 15.9 months
Description: Patients: Eligibility criteria for the phase 1 dose escalation and expansion study included provision of written informed consent, age ≥18 years, Eastern Cooperative Oncology Group performance status ≤2, and adequate end-organ function. The dose escalation part of the trial was open to patients with refractory solid tumors or unresectable GIST; however, only GIST patients were enrolled. Patients with unresectable GIST who had one or more measurable target lesion per modified Response Evaluation Criteria in Solid Tumors version 1.1 (mRECIST 1.1) were eligible for the dose expansion, which included three cohorts: patients with PDGFRA D842V-mutant GIST regardless of prior therapy; patients who progressed following imatinib and one or more other kinase inhibitors; and patients who received only imatinib.
Study Design: The primary endpoints of the phase 1, open-label dose escalation/expansion study were safety and tolerability of Compound (I) administered orally once daily and overall response rate (ORR) for each expansion cohort. Part 1 followed a 3+3 dose-escalation design, starting at 30 mg and continuing until the maximum tolerated dose (MTD) or the recommended phase 2 dose (RP2D) below the MTD was determined. Intrapatient dose escalation was permitted, and additional accrual was allowed to dose levels previously determined tolerable. The part 1 MTD was used to initiate the part 2 expansion. Treatment with Compound (I) was continued until precluded by toxicity, noncompliance, withdrawal of consent, physician decision, progressive disease, death, or closure of the study.
Safety and Response Assessments: Adverse events were evaluated at each visit from the start of study drug administration up to 30 days after the final dose of Compound (I) and were graded according to the National Cancer Institute Common Terminology Criteria for Adverse Events (NCI CTCAE) version 4.03. All patients underwent tumor imaging for response assessment via computed tomography (CT) or magnetic resonance imaging (MRI) at screening, every two cycles through and including cycle 13, then every three months until progression or discontinuation. Target and non-target lesions were identified and assessed per mRECIST 1.1 for GIST by independent, blinded, central radiographic review (BioTelemetry, Inc., Rockville, MD, USA).
Statistical Methods: The MTD, defined as the highest dose level with ≤1 cycle 1 dose limiting toxicity in six patients, was determined from all part 1 patients who completed cycle 1 and received at least 75% of their prescribed doses or experienced a dose limiting toxicity (DLT) (dose-determining population). The efficacy population included patients who received at least one dose of Compound (I) enrolled in part 1 or part 2 with PDGFRα D842V-mutant GIST who had one or more target lesions and at least one post-baseline disease assessment by central radiology. For the primary endpoint of partial or complete response, a sample size of 31 patients allowed testing the null hypothesis of overall response rate ≤10% versus the alternative hypothesis of objective response rate ≥35% with 90% power, assuming a 2-sided type I error rate of 0.05. Kaplan-Meier methods were used to estimate duration of response, PFS and OS, including the median with 95% confidence intervals. Estimated duration of response, PFS, and OS rates at 3-, 6-, and 12-months were also calculated.

[1] = test system: mast cell burden (serum tryptase, bone marrow mast cells, KIT D816V allele burden); test: Phase 2 PIONEER trial Part 1: measures of mast cell burden; type: in vivo, human
Description: This is a Phase 2, randomized, double-blind, placebo-controlled study comparing the efficacy and safety of Compound (I)+best supportive care (BSC) with placebo+BSC in patients with ISM and SSM whose symptoms are not adequately controlled by BSC. The study is conducted in three parts. In Part 1, the optimal dose Compound (I) (recommended phase 2 dose (RP2D)) was identified in patients with ISM. In Part 2, patients with ISM and SSM are randomly assigned to the RP2D of Compound (I) identified in Part 1+BSC, or to matching placebo+BSC. In Part 3, patients who have completed treatment in Part 1 or Part 2 of the study participate in a long-term extension, receiving Compound (I) at the RP2D+BSC.
Once BSC was optimized (between Day −98 and Day −71) and doses were stable for ≥14 days, ISM-SAF data was collected for an additional 14 days to determine eligibility based on symptom severity i.e., to identify ISM and SSM patients having moderate-to-severe symptoms. Patients not meeting the symptom severity threshold were deemed screen failures and were not eligible for study participation. Patients having moderate-to-severe symptoms and meeting the threshold for symptom severity began other screening procedures, including the following: Bone marrow (BM) biopsy (an archival sample obtained within the preceding 24 weeks or a fresh sample) and skin biopsy of lesional and nonlesional skin (in patients with cutaneous mastocytosis (CM)) were performed for confirmation of SM diagnosis and quantification of mast cells (MCs); patients with CM (maculopapular) had skin photographs taken. […]
Compound (I) was administered orally, once a day in continuous 28-day cycles. Patients were assessed weekly for the first 4 weeks, then every 4 weeks (until the RP2D was determined) for safety, laboratory monitoring, and quality of life (QoL) assessments. […] After completion of 12 weeks of treatment, BM and skin biopsy were repeated for MC quantification and skin photographs were taken in patients with baseline CM. […]

**Q.** What does the source list for Cn1cc(-c2cc3c(N4CCN(c5ncc([C@@](C)(N)c6ccc(F)cc6)cn5)CC4)ncnn3c2)cn1 [Compound (I), (S)-1-(4-fluorophenyl)-1-(2-(4-(6-(1-methyl-1H-pyrazol-4-yl)pyrrolo[2,1-f][1,2,4]triazin-4-yl)piperazin-1-yl)pyrimidin-5-yl)ethan-1-amine]?
**A.** CBR (CR + PR + SD) (PDGFRA D842V-mutant GIST; 300 mg (n = 28)): (96.4) %; CBR (CR + PR + SD), number of patients (PDGFRA D842V-mutant GIST; 300 mg (n = 28)): 27 n; CR (PDGFRA D842V-mutant GIST; 300 mg (n = 28)): (3.6) %; CR, number of patients (PDGFRA D842V-mutant GIST; 300 mg (n = 28)): 1 n; ORR (CR + PR), number of patients (PDGFRA D842V-mutant GIST; 300 mg (n = 28)): 26 n; PD, number of patients (PDGFRA D842V-mutant GIST; 300 mg (n = 28)): 0 n; PR (PDGFRA D842V-mutant GIST; 300 mg (n = 28)): (89.2) %; PR, number of patients (PDGFRA D842V-mutant GIST; 300 mg (n = 28)): 25 n; Progression free survival rate (PDGFRA D842V-mutant GIST; 3-month): 100%; Progression free survival rate (PDGFRA D842V-mutant GIST; 6-month): 94%; OS (estimated) (PDGFRA D842V-mutant GIST; 6 months): 100%; Progression free survival rate (PDGFRA D842V-mutant GIST; 12-month): 90%; OS (estimated) (PDGFRA D842V-mutant GIST; 12 months): 91%; OS (estimated) (PDGFRA D842V-mutant GIST; 24 months): 81%; CBR (CR + PR + SD), number of patients (PDGFRA D842V-mutant GIST; All Doses (n = 56)): 53 n; CR, number of patients (PDGFRA D842V-mutant GIST; All Doses (n = 56)): 5 n; ORR (CR + PR), number of patients (PDGFRA D842V-mutant GIST; All Doses (n = 56)): 49 n; PD, number of patients (PDGFRA D842V-mutant GIST; All Doses (n = 56)): 0 n; PR, number of patients (PDGFRA D842V-mutant GIST; All Doses (n = 56)): 44 n; Median PFS (PDGFRA D842V-mutant GIST; all dose levels): not reached; Median duration of response (PDGFRA D842V-mutant GIST; all dose levels): not reached; 12-month duration of response (PDGFRA D842V-mutant GIST; all dose levels, Kaplan-Meier): 70%; Blood KIT D816V allele fraction ([1]; 25 mg QD, similar to 50 mg and 100 mg QD): significant reduction; Serum tryptase, mast cell burden and KIT D816V allele burden ([1]; 25 mg once daily, ISM patients, vs placebo, FIG. 13): significant reductions; also recorded: robust reductions; also recorded: robust declines; KIT D816V allele burden ([1]; all dose cohorts (25, 50, 100 mg once daily), ISM patients, FIG. 12): significant decreases
